Drawing on PubChem BioAssay AID248 (DTP/NCI, 2004), this text covers T/C for 20 compounds.

The assay deals with L1210 leukemia ip in BDF1 mice, survival T/C. Nature of the assay: NCI In Vivo Anticancer Drug Screen. Data for tumor model L1210 Leukemia (intraperitoneal) in B6D2F1 (BDF1) mice. To be noted: endpoint: mean survival time, higher = longer survival. The method in brief:
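Ratio derived from survival: compound-dosed mice over vehicle-dosed mice, all bearing a transplantable tumor.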

[1] abbreviates: dose: 100.0 mg/kg/injection, schedule: Q01DX001 (ip), vehicle: saline.
Where [2] appears, read: dose: 400.0 mg/kg/injection, schedule: Q01DX001 (ip), vehicle: saline.
[3] abbreviates: dose: 100.0 mg/kg/injection, schedule: Q04DX003 (ip), vehicle: saline with Tween-80.
[4] abbreviates: dose: 200.0 mg/kg/injection, schedule: Q04DX003 (ip), vehicle: saline with Tween-80.
Setting [5] is: dose: 100.0 mg/kg/injection, schedule: Q01DX009 (ip), vehicle: saline.
The mark [6] stands for this setting: dose: 100.0 mg/kg/injection, schedule: Q04DX003 (ip), vehicle: saline.
Setting [7] is: dose: 200.0 mg/kg/injection, schedule: Q01DX009 (ip), vehicle: saline.
Where [8] appears, read: dose: 200.0 mg/kg/injection, schedule: Q04DX003 (ip), vehicle: saline.
Where [9] appears, read: dose: 100.0 mg/kg/injection, schedule: Q01DX001 (ip), vehicle: Klucel (hydroxypropylcellulose) (HPC).
[10] abbreviates: dose: 100.0 mg/kg/injection, schedule: Q04DX003 (ip), vehicle: Klucel (hydroxypropylcellulose) (HPC).
[11] abbreviates: dose: 200.0 mg/kg/injection, schedule: Q01DX001 (ip), vehicle: Klucel (hydroxypropylcellulose) (HPC).
Where [12] appears, read: dose: 200.0 mg/kg/injection, schedule: Q04DX003 (ip), vehicle: Klucel (hydroxypropylcellulose) (HPC).
Setting [13] is: dose: 400.0 mg/kg/injection, schedule: Q04DX003 (ip), vehicle: Klucel (hydroxypropylcellulose) (HPC).
[14] abbreviates: dose: 50.0 mg/kg/injection, schedule: Q01DX009 (ip), vehicle: saline.
Setting [15] is: dose: 100.0 mg/kg/injection, schedule: Q04DX002 (ip), vehicle: Klucel (hydroxypropylcellulose) (HPC).
Where [16] appears, read: dose: 200.0 mg/kg/injection, schedule: Q04DX002 (ip), vehicle: Klucel (hydroxypropylcellulose) (HPC).

Where “and” joins values, the source holds several entries; their conditions need not be identical. Equal values may be shown once. Inconclusive results and toxic doses are left out.

In the case of `Cc1ccc(C=C2c3ccccc3-c3ccccc32)cc1`, the T/C reads like this: (dose: 12.5 mg/kg/injection, schedule: Q04DX002 (ip), vehicle: gum acacia) 120 % of control; (dose: 25.0 mg/kg/injection, schedule: Q04DX002 (ip), vehicle: gum acacia) 88 % of control; (dose: 50.0 mg/kg/injection, schedule: Q04DX002 (ip), vehicle: gum acacia) 98 % of control.
Regarding `O=[As](O)(c1ccccc1)C1CCCCC1O` (configuration not stated), the T/C (dose: 6.25 mg/kg/injection, schedule: Q01DX001 (ip), vehicle: saline with Tween-80) was 97 % of control; the T/C (dose: 12.5 mg/kg/injection, schedule: Q01DX001 (ip), vehicle: saline with Tween-80) is 98 % of control; the T/C (dose: 25.0 mg/kg/injection, schedule: Q01DX001 (ip), vehicle: saline with Tween-80) was 111 % of control.
As to `COCCOC1=C(N2CC2)C(=O)C(OCCOC)=C(N2CC2)C1=O`, the T/C (dose: 0.09 mg/kg/injection, schedule: Q01DX009 (ip), vehicle: saline) is 96 % of control; the T/C (dose: 0.17 mg/kg/injection, schedule: Q01DX009 (ip), vehicle: saline) was 106 % of control; the T/C (dose: 0.33 mg/kg/injection, schedule: Q01DX009 (ip), vehicle: saline) was 153 % of control; the T/C (dose: 0.66 mg/kg/injection, schedule: Q01DX009 (ip), vehicle: saline) is 183 % of control; the T/C (dose: 1.0 mg/kg/injection, schedule: Q01DX Z (ip), vehicle: saline) was 117 % of control; the T/C (dose: 1.25 mg/kg/injection, schedule: Q01DX001 (ip), vehicle: saline) is 112 % of control. Moreover, the T/C (dose: 1.32 mg/kg/injection, schedule: Q01DX009 (ip), vehicle: saline) is 150 % of control; the T/C (dose: 2.0 mg/kg/injection, schedule: Q01DX Z (ip), vehicle: saline) was 150 % of control; the T/C (dose: 2.27 mg/kg/injection, schedule: Q01DX009 (ip), vehicle: saline) was 153 % of control; the T/C (dose: 3.0 mg/kg/injection, schedule: Q01DX001 (ip), vehicle: saline) was 110 % of control; the T/C (dose: 3.78 mg/kg/injection, schedule: Q01DX009 (ip), vehicle: saline) is 195 % of control; the T/C (dose: 4.0 mg/kg/injection, schedule: Q01DX Z (ip), vehicle: saline) was 150 % of control. For the same compound, the T/C runs as follows: (dose: 5.55 mg/kg/injection, schedule: Q01DX001 (ip), vehicle: saline) 106 % of control; (dose: 6.0 mg/kg/injection, schedule: Q01DX001 (ip), vehicle: saline) 119 % of control; (dose: 6.3 mg/kg/injection, schedule: Q01DX009 (ip), vehicle: saline) 185 % of control; (dose: 8.0 mg/kg/injection, schedule: Q01DX Z (ip), vehicle: saline) 91 % of control; (dose: 10.0 mg/kg/injection, schedule: Q01DX001 (ip), vehicle: saline) 150 % of control and 176 % of control.
Turning to `O=C(OCc1ccccc1)C1CCCN1Cc1ccc2c(c1)OCO2` (configuration not stated), the T/C by setting is: under setting [1], 93 % of control; under setting [2], 96 % of control.
As to `CCCCCCCCCCCCCCCC(=O)OCCCCCCCCCC`, the T/C under setting [3] is 100 % of control; the T/C under setting [4] was 87 % of control; the T/C (dose: 400.0 mg/kg/injection, schedule: Q04DX003 (ip), vehicle: saline with Tween-80) is 95 % of control.
Regarding `CCOC(=O)c1ccc(NCC(C)(C)[N+](=O)[O-])cc1`, the T/C is 102 % of control under setting [5]; 95 % of control under setting [6]; 105 % of control under setting [7]; 107 % of control under setting [8]; 96 % of control and 105 % of control (dose: 400.0 mg/kg/injection, schedule: Q01DX009 (ip), vehicle: saline); 91 % of control (dose: 400.0 mg/kg/injection, schedule: Q04DX003 (ip), vehicle: saline).
For `Cc1ccc(S(=O)(=O)N(C)c2cc(Cl)c(C#N)c(Cl)c2)cc1`, the T/C runs as follows: under setting [9], 96 % of control; under setting [10], 102 % of control; under setting [11], 96 % of control; under setting [12], 93 % of control and 92 % of control; (dose: 400.0 mg/kg/injection, schedule: Q01DX001 (ip), vehicle: Klucel (hydroxypropylcellulose) (HPC)) 89 % of control; under setting [13], 97 % of control and 91 % of control.
Consider `CCCC[S][Pb]([c]1ccccc1)([c]1ccccc1)[c]1ccccc1`, for which the T/C is 101 % of control under setting [9] and 106 % of control under setting [11].
On to `CCc1nc2c(OC)ccc(OC)c2nc1C`, for which the T/C (dose: 75.0 mg/kg/injection, schedule: Q01DX001 (ip), vehicle: other) was 96 % of control and the T/C (dose: 150.0 mg/kg/injection, schedule: Q01DX001 (ip), vehicle: other) is 96 % of control.
For `O=C1NC(=O)C(=Cc2csc3ccccc23)C(=O)N1`, the T/C was 94 % of control (dose: 100.0 mg/kg/injection, schedule: Q01DX001 (ip), vehicle: carboxymethylcellulose (CMC)) and 96 % of control (dose: 200.0 mg/kg/injection, schedule: Q01DX001 (ip), vehicle: carboxymethylcellulose (CMC)).
Turning to `O=C1c2ccccc2C(=O)N1CCCCCCN1C(=O)c2ccccc2C1=O`, the T/C is 96 % of control (dose: 100.0 mg/kg/injection, schedule: Q04DX002 (ip), vehicle: gum acacia); 107 % of control (dose: 200.0 mg/kg/injection, schedule: Q04DX002 (ip), vehicle: gum acacia); 101 % of control (dose: 400.0 mg/kg/injection, schedule: Q04DX002 (ip), vehicle: gum acacia).
Consider `CS(=O)(=O)OCC1CCc2[nH]c3ccccc3c2C1` (configuration not stated), for which the T/C was 108 % of control under setting [10], 97 % of control under setting [12] and 97 % of control under setting [13].
Turning to `CC1(C)OCC(C2OC(=O)C(O)=C2O)O1` (configuration not stated), the T/C reads like this: under setting [14], 111 % of control; under setting [5], 92 % of control; under setting [7], 101 % of control.
As to `CCS(=O)(=O)C1C2CCC(O2)C1S(=O)(=O)CC` (configuration not stated), the T/C runs as follows: under setting [15], 94 % of control; under setting [16], 101 % of control; (dose: 400.0 mg/kg/injection, schedule: Q04DX002 (ip), vehicle: Klucel (hydroxypropylcellulose) (HPC)) 90 % of control.
Turning to `CCOC(=O)Nc1ccc(Cl)c(Cl)c1`, the T/C (dose: 100.0 mg/kg/injection, schedule: Q01DX009 (ip), vehicle: Klucel (hydroxypropylcellulose) (HPC)) was 98 % of control; the T/C (dose: 200.0 mg/kg/injection, schedule: Q01DX009 (ip), vehicle: Klucel (hydroxypropylcellulose) (HPC)) is 101 % of control; the T/C (dose: 400.0 mg/kg/injection, schedule: Q01DX009 (ip), vehicle: Klucel (hydroxypropylcellulose) (HPC)) was 108 % of control.
With `O=[N+]([O-])c1ccc2c(c1)c(-c1cccc(-c3ccccc3)c1)nc1ccccc12`, the T/C under setting [3] is 95 % of control and the T/C under setting [4] is 88 % of control.
In the case of `N=c1c(C(=O)O)cccn1O`, the T/C (dose: 87.5 mg/kg/injection, schedule: Q01DX009 (ip), vehicle: Klucel (hydroxypropylcellulose) (HPC)) was 105 % of control; the T/C (dose: 175.0 mg/kg/injection, schedule: Q01DX009 (ip), vehicle: Klucel (hydroxypropylcellulose) (HPC)) was 94 % of control; the T/C (dose: 350.0 mg/kg/injection, schedule: Q01DX009 (ip), vehicle: Klucel (hydroxypropylcellulose) (HPC)) is 95 % of control.
Turning to `COc1ccc(C=[N+](C)CCc2ccc(OC)c(OC)c2)cc1OC`, the T/C (dose: 25.0 mg/kg/injection, schedule: Q01DX009 (ip), vehicle: saline) is 96 % of control; the T/C under setting [14] was 101 % of control; the T/C under setting [5] is 93 % of control and 116 % of control; the T/C under setting [6] is 100 % of control; the T/C under setting [7] is 98 % of control and 91 % of control; the T/C under setting [8] is 97 % of control.
Regarding `COc1ccc(C(=O)Nc2ccccc2)cc1NC(=S)Nc1ccccc1`, the T/C runs as follows: under setting [15], 95 % of control; under setting [16], 98 % of control.
As for `Cc1ccc(-n2cnnn2)cc1`, the T/C under setting [1] was 103 % of control; the T/C (dose: 200.0 mg/kg/injection, schedule: Q01DX001 (ip), vehicle: saline) is 104 % of control; the T/C under setting [2] is 103 % of control.
